In US10982192B2, “Method for the induction of arterial-type of hemogenic endothelium from hPSCS” (Wisconsin Alumni Research Foundation, priority 2017, dated 2021):

Legend:
D4 CD31+ HE cells = assay: CellTracer proliferation assay and EdU cell cycle analysis; format: cell-based, human
Protocol: D4 CD31^+ HE cells were incubated in PBS with CellTracer (1 μg/ml, Thermo) for 20 minutes at 37° C. After washing, the cells were plated on collagen IV-coated plates with either Fc-IgG or DLL1-Fc and the modified Day 4 medium, as described above, at a higher density of 30,000 to 40,000 cells/cm^2 due to toxicity from the CellTracer. Aliquots of the purified cells were analyzed by flow cytometry to determine the purity of the MACS cells and establish the Generation 0 peak for the proliferation assay. Secondary cultures were collected every day after plating for flow cytometry analysis, and calibration beads were used to generate compatible CellTracer results. After D4+4, FlowJo™ Analysis software was used to concatenate the data from each day. The average number of cell divisions was calculated based on the number of cells on each day (FIG. 1F) and applied to the proliferation platform algorithm in FlowJo™ to determine the specific generation gates. Those peaks were re-applied to individual sets of data to determine the percentage of each generation within the hematoendothelial populations. For cell cycle analysis, D4+4 cells were incubated in culture medium with EdU (10 μM, Thermo Fisher) for 2 hours and stained with CD43 and CD144 antibodies for 20 min. […]

[1] = test system: D4 CD144+CD43-CD73- HE cells; assay: Flow cytometry of CD144/CD43 in secondary culture of D4 HE (hematopoiesis/EHT), serum- and feeder-free; format: cell-based, human
Protocol: (§1) Human pluripotent stem cells, H1 hESC line, DF19-9-7T fibroblast-hiPSC line, IISH2i-BM9 bone marrow-iPSC line, and IISH3i-CB6 cord blood-iPSC line, were maintained and passaged in chemically defined conditions using vitronectin and E8 medium, as previously described^85. The human PSCs were differentiated into hematoendothelial lineages using a modified protocol previously described^35. On Day −1, hPSCs were singularized and plated on collagen IV-coated plates (0.5 μg/cm^2) at a cell density of 7,500 cells/cm^2 in E8 medium supplemented with 10 uM Rock inhibitor (Y-27632, Cayman Chemicals). On Day 0, the medium was changed to IF9S medium supplemented with BMP4, FGF2 (50 ng/ml), Activin A (15 ng/ml, Peprotech), LiCl (2 mM, Sigma), and ROCK inhibitor (0.5 μM, Cayman Chemicals) and cultured in hypoxia (5% O2, 5% CO2). On day 2, the medium was changed to IF9S medium supplemented with FGF2, VEGF (50 ng/ml, Peprotech), and 2.5 μM TGFβ inhibitor (SB-431542, Cayman Chemicals). On day 4, cell cultures were singularized and stained with anti-CD31 microbeads (Miltenyi) for 15 minutes. Cells were washed and HE were purified using CD31 antibody and MACS LS columns (Miltenyi). Purified CD31^+ HE were then plated at a density of 20,000 to 30,000 cells/cm^2 on collagen IV-coated plates (1 μg/cm^2) that were either co-coated with IgG-Fc fragments or human DLL1-Fc (made in-house), in IF9S medium supplemented with FGF2, VEGF, EGF, IGF-I, IGF-II, TPO, IL-6 (50 ng/ml), SCF (20 ng/ml), IL-3, FLT3L (10 ng/ml, Peprotech), and ROCK inhibitor (5 μM, Cayman Chemicals), and where specified, DMSO (1:1000, Fisher Scientific) or DAPT (10 μM, Cayman Chemicals), and cultured in normoxia (20% O2, 5% CO2). In some experiments, HE was cultured on plates co-coated with human JAG1-Fc (R&D Systems). A sample of the purified cells was analyzed by flow cytometry, and experiments were continued only if the purity of the HE was over 95% CD144^+. On Day 4+1, the medium was replaced with fresh medium containing the same supplements without ROCK inhibitor. […]

D4 HE cells = assay: Annexin V flow cytometric analysis of apoptosis; format: cell-based, human; conditions: D4+4
NOTCH1 = assay: Western blot of activated cleaved NOTCH1 (NOTCH:ICD) in D4 HE; format: cell-based, human; conditions: D4 HE cultured for 24 h (D4+1); DAPT 10 μM or immobilized DLL1-Fc
Protocol: as §1, with “Purified CD31^+ HE were then plated at a density of 20,000 to 30,000 cells/cm^2 on collagen IV-coated plates (1 μg/cm^2) that were either co-coated with IgG-Fc fragments or human DLL1-Fc (made in-house), in IF9S medium supplemented with FGF2, VEGF, EGF, IGF-I, IGF-II, TPO, IL-6 (50 ng/ml), SCF (20 ng/ml), IL-3, FLT3L (10 ng/ml, Peprotech), and ROCK inhibitor (5 μM, Cayman Chemicals), and where specified, DMSO (1:1000, Fisher Scientific) or DAPT (10 μM, Cayman Chemicals), and cultured in normoxia (20% O2, 5% CO2). In some experiments, HE was cultured on plates co-coated with human JAG1-Fc (R&D Systems).” left out, “CD144^+.” for “CD144^+. On Day 4+1, the medium was replaced with fresh medium containing the same supplements without ROCK inhibitor.”

HES1 = assay: qPCR of NOTCH1 target gene HES1 in D4 HE; format: cell-based, human; conditions: D4 HE cultured for 12 hours (D4+0.5)
Protocol: Human pluripotent stem cells, H1 hESC line, DF19-9-7T fibroblast-hiPSC line, IISH2i-BM9 bone marrow-iPSC line, and IISH3i-CB6 cord blood-iPSC line, were maintained and passaged in chemically defined conditions using vitronectin and E8 medium, as previously described^85. The human PSCs were differentiated into hematoendothelial lineages using a modified protocol previously described^35. On Day −1, hPSCs were singularized and plated on collagen IV-coated plates (0.5 μg/cm^2) at a cell density of 7,500 cells/cm^2 in E8 medium supplemented with 10 uM Rock inhibitor (Y-27632, Cayman Chemicals). On Day 0, the medium was changed to IF9S medium supplemented with BMP4, FGF2 (50 ng/ml), Activin A (15 ng/ml, Peprotech), LiCl (2 mM, Sigma), and ROCK inhibitor (0.5 μM, Cayman Chemicals) and cultured in hypoxia (5% O2, 5% CO2). […] A sample of the purified cells was analyzed by flow cytometry, and experiments were continued only if the purity of the HE was over 95% CD144^+. […]
Cells were differentiated for the respective days and sorted on a FACS Aria II. RNA was collected using RNA MiniPrep Plus (Invitrogen) and quantified on a NanoDrop (GE Healthcare). […] The reactions were run on a Mastercycler RealPlex Thermal Cycler (Eppendorf) and the expression levels were calculated by minimal cycle threshold values (Ct) normalized to the reference expression of RPL13a. […]

D4 HE = assay: Single-cell deposition assay for endothelial-to-hematopoietic transition on OP9-iDLL4; format: cell-based, human; conditions: OP9-iDLL4 without DOX-pretreatment, DAPT 20 μM, compared to control condition
Protocol: One day before single-cell deposition, the OP9-iDLL4 cell line was treated with mitomycin C as described above, and passaged into 96-well plates at a density of 12,500 cells/cm2. OP9-iDLL4 used for the NOTCH activation condition was incubated with doxycycline for 24 hours after passaging into 96-well plates. On the day of single-cell sorting, OP9-iDLL4 medium was changed to αMEM with 10% FBS (GE), TPO, SCF, IL-6 (50 ng/ml), IL-3, FLT3L (10 ng/ml), and DMSO (1:500) for the control, and NOTCH activation conditions, or DAPT (20 μM) for the NOTCH inhibition condition. Day 4 differentiated human pluripotent stem cells were singularized, stained for CD309-PE and CD144-APC (Miltenyi Biotech), and single-cell sorted into individual wells of the 96-well plates using a FACS Aria II. To exclude possibility of doublets, we used a low density (less than 1 million cells/ml) cells suspension, sorting speed less than 1000 cellular events/per second and stringent gating on single cells using both FSC-A vs FSC-H and SSC-A vs SSC-H. One day after sorting, the medium was changed to fresh medium without DMSO or DAPT, and extra medium was added every 3 days. […]

D4+4 CD43+ cells = assay: T-cell differentiation of D4+4 cultures on OP9-DLL4; format: cell-based, human
Protocol: Total D4+4 cultures were singularized, strained, and cultured in T-cell differentiation conditions on OP9-DLL4 for 3 weeks as described^35. For D5+4 cultures, only the floating hematopoietic cells were collected and cultured in T-cell differentiation conditions. Limiting Dilution Assays were conducted with the floating cells collected from D5+4 cultures (HE:DLL4^− on OP9+DAPT, OP9+DMSO, and OP9-DLL4, and HE:DLL4^+ on OP9-DLL4). Row A of a 96-well plate received 500 cells/well, and each subsequent row afterwards had half the previous row (Row B contained 250, Row C contained 125 . . . Row H contained 3-4 cells). The wells were scored 2 weeks later by eye and flow-cytometry for CD5^+CD7^+ containing cells. Positive threshold was set at 167 CD5^+CD7^+ cells/well. Extreme limiting dilution analysis was conducted using the previously established algorithm^88

D5 HE:DLL4- = assay: Blood production from D5 HE:DLL4- in OP9 co-culture with NOTCH inhibition; format: cell-based, human; conditions: DAPT 20 μM
Protocol: (§2) OP9, OP9-DLL4, and the inducible OP9-iDLL4 (made in-house) cell lines were maintained in αMEM with 20% FBS (GE) on gelatin-coated plates in normoxia as previously described^86. Using TrypLE (Thermo), OP9 were passaged at a 1:8 ratio every 3-4 days when they were 80% confluent. One day before co-culture with differentiated human HE cells, OP9 lines were treated with mitomycin C (1 mg/ml) for 2 hours and then plated at a density of 12,500 cells/cm^2 as previously described^87. D4 HE cells or D5 CD144^+ subsets were plated onto OP9 lines at a density between 1000 to 2000 cells/cm^2 in medium containing αMEM with 10% FBS (GE), TPO, SCF, IL-6 (50 ng/ml), IL-3, and FLT3L (10 ng/ml). Medium was changed after 24 hours, and extra medium added 2 days later. Experiments conducted with DAPT were treated with 20 μM, while corresponding control conditions had DMSO added at a 1:500 dilution.

[2] = test system: cells collected from D4+4 HE cultures; assay: Hematopoietic colony forming unit assay; format: cell-based, human; conditions: cells from D4+4 HE cultures in methocellulose, vs control
Protocol: Hematopoietic colony forming unit assay was conducted in serum-containing H4436 Methocult (Stem Cell Technologies) as previously described^26, 35.

D5 HE:DLL4+ = assay: Blood production from D5 HE:DLL4+ in OP9 co-culture with NOTCH inhibition; format: cell-based, human; conditions: treatment from D5 to D5+2, D5+2 to D5+4, and D5 to D5+4; 20 μM
Protocol: as §2

[3] = test system: CD34+CD43-CD73- HE progenitors; conditions: NOTCH inhibition; cited from earlier work
Runx1+23 enhancer = assay: Runx1+23-eGFP reporter flow cytometry; format: cell-based, human; conditions: D4 HE cultured with DAPT or on DLL1-Fc
Protocol: Runx1+23 enhancer fragment^33 was amplified by PCR and subsequently cloned into the AAVS-SA-2A-PURO vector (gift from Gadue Lab, The Children's Hospital of Philadelphia). Human ESCs were transfected with zinc-finger nuclease vectors and later puromycin-resistant individual cells were clonally expanded and on-targeted clones were selected, as previously described^38. Southern Blot (SB) analysis was performed by DIG-labeling hybridization (Roche). Briefly, 10 μg genomic DNA was digested using a EcoRV restriction enzyme for overnight, separated on a 0.7% agarose gel for 6 hours, transferred to a nylon membrane (Amersham), and incubated with DIG-labeling probes. The external probe is a DIG-labeled 600 nucleotide fragment that binds to the EcoRV-digested fragment of the 5′ external region. The internal probe is a DIG-labeled 700 nucleotide fragment that binds to the EcoRV-digested fragment of the of the eGFP region.
Flow Cytometry was conducted using the MACSQuant 10 (Miltenyi Biotech). FACS-sorting was conducted on a FACS Aria II (BD) as previously described^26, 35, 86.

Q: With C[C@H](NC(=O)Cc1cc(F)cc(F)c1)C(=O)N[C@H](C(=O)OC(C)(C)C)c1ccccc1 [DAPT] as the molecule, how does the “cycling CD43+ cells (EdU)” value (D4 CD31+ HE cells; D4+4) read?
A: no differences

Q: What about the “distribution of CD43+ cells within each generation” value (D4 CD31+ HE cells; D4+4, treated through D4+4) of the same molecule?
A: no significant shift

Q: And the “CD43+ HPs” value ([1]; each day from D4+1 to D4+4)?
A: decreased CD43+ HPs

Q: And the “CD43hi CD144- cells on D4+2 through D4+4” value ([1]; treated for 24-hours from D4 to D4+1)?
A: significant drop

Q: And the hematopoiesis ([1]; treatment throughout (D4 to D4+4))?
A: more profoundly decreased hematopoiesis

Q: And the “apoptosis of blood cells post-transition” value (D4 HE cells)?
A: none of the conditions affected apoptosis

Q: And the “activated cleaved form of NOTCH1” value (NOTCH1)?
A: decrease

Q: And the “HES1 mRNA expression” value (HES1)?
A: decreased

Q: What about the “ratio of hematopoietic/endothelial colonies” value (D4 HE) of the same molecule?
A: markedly decreased

Q: What about the “T-cell potential of HPs” value (D4+4 CD43+ cells) of the same molecule?
A: no T-cell potential

Q: And the “hematopoietic activity of HE:DLL4- cultures” value (D5 HE:DLL4-)?
A: no effect on hematopoietic activity

Q: And the “total number of colonies” value [2]?
A: significantly lower

Q: And the “hematopoietic activity of the HE:DLL4+ population” value (D5 HE:DLL4+)?
A: significantly inhibited hematopoietic activity

Q: And the “production of CD45+ cells” value [3]?
A: reduces production of CD45^+ cells

Q: What about the “Runx1+23 enhancer activity (eGFP)” value (Runx1+23 enhancer) of the same molecule?
A: decreases
